Data from ChEMBL document CHEMBL3994622, “Design and synthesis of new RAF kinase-inhibiting antiproliferative quinoline derivatives. Part 2: Diarylurea derivatives” (Eur J Med Chem, 2017).

The compounds below were run on HCT-116 (assay: Growth inhibition of human HCT116 cells assessed as cell growth at 10 uM incubated for 48 hrs by sulforhodamine B assay relative to control). Conditions: HCT-116, 48 h, read-out: Activity.
Assay type: functional

Row | Structure (SMILES) | growth at 10 µM
1 | COc1cc2cc(Oc3ccc(NC(=O)Nc4ccccc4)cc3)c(C)nc2cc1OC | 42.6%
2 | COc1cc2cc(Sc3ccc(NC(=O)Nc4ccc(Cl)c(Cl)c4)cc3)c(C)nc2cc1OC | 67.9%

What follows are compounds tested on NCI-H522 (assay: Growth inhibition of human NCI-H522 cells assessed as cell growth at 10 uM incubated for 48 hrs by sulforhodamine B assay relative to control). Conditions: NCI-H522, 48 h, read-out: Activity.
Assay type: functional

Row | Structure (SMILES) | growth at 10 µM
3 | COc1cc2cc(Oc3ccc(NC(=O)Nc4ccccc4)cc3)c(C)nc2cc1OC | 67.2%
4 | COc1cc2cc(Sc3ccc(NC(=O)Nc4ccc(Cl)c(Cl)c4)cc3)c(C)nc2cc1OC | 66%

Each compound was assayed on DU-145 (assay: Growth inhibition of human DU145 cells assessed as cell growth at 10 uM incubated for 48 hrs by sulforhodamine B assay relative to control). Conditions: DU-145, 48 h, read-out: Activity.
Assay type: functional

Row | Structure (SMILES) | growth at 10 µM
5 | COc1cc2cc(Oc3ccc(NC(=O)Nc4ccccc4)cc3)c(C)nc2cc1OC | 88.7%
6 | COc1cc2cc(Sc3ccc(NC(=O)Nc4ccc(Cl)c(Cl)c4)cc3)c(C)nc2cc1OC | 75.5%

The compounds below were run on HCC 2998 (assay: Growth inhibition of human HCC2998 cells assessed as cell growth at 10 uM incubated for 48 hrs by sulforhodamine B assay relative to control). Conditions: HCC 2998, 48 h, read-out: Activity.
Assay type: functional

Row | Structure (SMILES) | growth at 10 µM
7 | COc1cc2cc(Oc3ccc(NC(=O)Nc4ccccc4)cc3)c(C)nc2cc1OC | 105%
8 | COc1cc2cc(Sc3ccc(NC(=O)Nc4ccc(Cl)c(Cl)c4)cc3)c(C)nc2cc1OC | 101%

The compounds below were run on RPMI-8226 (assay: Growth inhibition of human RPMI8226 cells assessed as cell growth at 10 uM incubated for 48 hrs by sulforhodamine B assay relative to control). Conditions: RPMI-8226, 48 h, read-out: Activity.
Assay type: functional

Row | Structure (SMILES) | growth at 10 µM
9 | COc1cc2cc(Oc3ccc(NC(=O)Nc4ccccc4)cc3)c(C)nc2cc1OC | 38.8%
10 | COc1cc2cc(Sc3ccc(NC(=O)Nc4ccc(Cl)c(Cl)c4)cc3)c(C)nc2cc1OC | 54.5%

The compounds below were run on CCRF-CEM (assay: Growth inhibition of human CCRF-CEM cells assessed as cell growth at 10 uM incubated for 48 hrs by sulforhodamine B assay relative to control). Conditions: read-out: Activity.
Assay type: functional

Row | Structure (SMILES) | growth at 10 µM
11 | COc1cc2cc(Oc3ccc(NC(=O)Nc4ccccc4)cc3)c(C)nc2cc1OC | 55.2%
12 | COc1cc2cc(Sc3ccc(NC(=O)Nc4ccc(Cl)c(Cl)c4)cc3)c(C)nc2cc1OC | 50.7%

What follows are compounds tested on SNB-75 (assay: Growth inhibition of human SNB75 cells assessed as cell growth at 10 uM incubated for 48 hrs by sulforhodamine B assay relative to control). Conditions: SNB-75, 48 h, read-out: Activity.
Assay type: functional

Row | Structure (SMILES) | growth at 10 µM
13 | COc1cc2cc(Oc3ccc(NC(=O)Nc4ccccc4)cc3)c(C)nc2cc1OC | 75.8%
14 | COc1cc2cc(Sc3ccc(NC(=O)Nc4ccc(Cl)c(Cl)c4)cc3)c(C)nc2cc1OC | 86.4%

What follows are compounds tested on EKVX (assay: Growth inhibition of human EKVX cells assessed as cell growth at 10 uM incubated for 48 hrs by sulforhodamine B assay relative to control). Conditions: read-out: Activity.
Assay type: functional

Row | Structure (SMILES) | growth at 10 µM
15 | COc1cc2cc(Oc3ccc(NC(=O)Nc4ccccc4)cc3)c(C)nc2cc1OC | 63.4%
16 | COc1cc2cc(Sc3ccc(NC(=O)Nc4ccc(Cl)c(Cl)c4)cc3)c(C)nc2cc1OC | 69.4%

These compounds were tested on PC-3 (assay: Growth inhibition of human PC3 cells assessed as cell growth at 10 uM incubated for 48 hrs by sulforhodamine B assay relative to control). Conditions: PC-3, 48 h, read-out: Activity.
Assay type: functional

Row | Structure (SMILES) | growth at 10 µM
17 | COc1cc2cc(Oc3ccc(NC(=O)Nc4ccccc4)cc3)c(C)nc2cc1OC | 60.4%
18 | COc1cc2cc(Sc3ccc(NC(=O)Nc4ccc(Cl)c(Cl)c4)cc3)c(C)nc2cc1OC | 56.1%

What follows are compounds tested on MDA-MB-231 (assay: Growth inhibition of human MDA-MB-231 cells assessed as cell growth at 10 uM incubated for 48 hrs by sulforhodamine B assay relative to control). Conditions: MDA-MB-231, 48 h, read-out: Activity.
Assay type: functional

Row | Structure (SMILES) | growth at 10 µM
19 | COc1cc2cc(Oc3ccc(NC(=O)Nc4ccccc4)cc3)c(C)nc2cc1OC | 80%
20 | COc1cc2cc(Sc3ccc(NC(=O)Nc4ccc(Cl)c(Cl)c4)cc3)c(C)nc2cc1OC | 87.9%

What follows are compounds tested on SK-MEL-28 (assay: Growth inhibition of human SK-MEL-28 cells assessed as cell growth at 10 uM incubated for 48 hrs by sulforhodamine B assay relative to control). Conditions: SK-MEL-28, 48 h, read-out: Activity.
Assay type: functional

Row | Structure (SMILES) | growth at 10 µM
21 | COc1cc2cc(Oc3ccc(NC(=O)Nc4ccccc4)cc3)c(C)nc2cc1OC | 96.2%
22 | COc1cc2cc(Sc3ccc(NC(=O)Nc4ccc(Cl)c(Cl)c4)cc3)c(C)nc2cc1OC | 96.5%

What follows are compounds tested on SR (assay: Growth inhibition of human SR cells assessed as cell growth at 10 uM incubated for 48 hrs by sulforhodamine B assay relative to control). Conditions: read-out: Activity.
Assay type: functional

Row | Structure (SMILES) | growth at 10 µM
23 | COc1cc2cc(Oc3ccc(NC(=O)Nc4ccccc4)cc3)c(C)nc2cc1OC | 42.6%
24 | COc1cc2cc(Sc3ccc(NC(=O)Nc4ccc(Cl)c(Cl)c4)cc3)c(C)nc2cc1OC | 52.7%

What follows are compounds tested on HOP-62 (assay: Growth inhibition of human HOP62 cells assessed as cell growth at 10 uM incubated for 48 hrs by sulforhodamine B assay relative to control). Conditions: HOP-62, 48 h, read-out: Activity.
Assay type: functional

Row | Structure (SMILES) | growth at 10 µM
25 | COc1cc2cc(Oc3ccc(NC(=O)Nc4ccccc4)cc3)c(C)nc2cc1OC | 103%
26 | COc1cc2cc(Sc3ccc(NC(=O)Nc4ccc(Cl)c(Cl)c4)cc3)c(C)nc2cc1OC | 92.6%

What follows are compounds tested on MOLT-4 (assay: Growth inhibition of human MOLT4 cells assessed as cell growth at 10 uM incubated for 48 hrs by sulforhodamine B assay relative to control). Conditions: MOLT-4, 48 h, read-out: Activity.
Assay type: functional

Row | Structure (SMILES) | growth at 10 µM
27 | COc1cc2cc(Oc3ccc(NC(=O)Nc4ccccc4)cc3)c(C)nc2cc1OC | 37.9%
28 | COc1cc2cc(Sc3ccc(NC(=O)Nc4ccc(Cl)c(Cl)c4)cc3)c(C)nc2cc1OC | 38.1%

What follows are compounds tested on Hs-578T (assay: Growth inhibition of human Hs 578T cells assessed as cell growth at 10 uM incubated for 48 hrs by sulforhodamine B assay relative to control). Conditions: read-out: Activity.
Assay type: functional

Row | Structure (SMILES) | growth at 10 µM
29 | COc1cc2cc(Oc3ccc(NC(=O)Nc4ccccc4)cc3)c(C)nc2cc1OC | 78%
30 | COc1cc2cc(Sc3ccc(NC(=O)Nc4ccc(Cl)c(Cl)c4)cc3)c(C)nc2cc1OC | 85.6%

The compounds below were run on BT-549 (assay: Growth inhibition of human BT549 cells assessed as cell growth at 10 uM incubated for 48 hrs by sulforhodamine B assay relative to control). Conditions: BT-549, 48 h, read-out: Activity.
Assay type: functional

Row | Structure (SMILES) | growth at 10 µM
31 | COc1cc2cc(Oc3ccc(NC(=O)Nc4ccccc4)cc3)c(C)nc2cc1OC | 104%
32 | COc1cc2cc(Sc3ccc(NC(=O)Nc4ccc(Cl)c(Cl)c4)cc3)c(C)nc2cc1OC | 77.8%

These compounds were tested on UACC-257 (assay: Growth inhibition of human UACC257 cells assessed as cell growth at 10 uM incubated for 48 hrs by sulforhodamine B assay relative to control). Conditions: UACC-257, 48 h, read-out: Activity.
Assay type: functional

Row | Structure (SMILES) | growth at 10 µM
33 | COc1cc2cc(Oc3ccc(NC(=O)Nc4ccccc4)cc3)c(C)nc2cc1OC | 92.4%
34 | COc1cc2cc(Sc3ccc(NC(=O)Nc4ccc(Cl)c(Cl)c4)cc3)c(C)nc2cc1OC | 90%

The compounds below were run on OVCAR-8 (assay: Growth inhibition of human OVCAR8 cells assessed as cell growth at 10 uM incubated for 48 hrs by sulforhodamine B assay relative to control). Conditions: OVCAR-8, 48 h, read-out: Activity.
Assay type: functional

Row | Structure (SMILES) | growth at 10 µM
35 | COc1cc2cc(Oc3ccc(NC(=O)Nc4ccccc4)cc3)c(C)nc2cc1OC | 71.9%
36 | COc1cc2cc(Sc3ccc(NC(=O)Nc4ccc(Cl)c(Cl)c4)cc3)c(C)nc2cc1OC | 83.6%

What follows are compounds tested on RXF 393 (assay: Growth inhibition of human RXF393 cells assessed as cell growth at 10 uM incubated for 48 hrs by sulforhodamine B assay relative to control). Conditions: RXF 393, 48 h, read-out: Activity.
Assay type: functional

Row | Structure (SMILES) | growth at 10 µM
37 | COc1cc2cc(Oc3ccc(NC(=O)Nc4ccccc4)cc3)c(C)nc2cc1OC | 76.7%
38 | COc1cc2cc(Sc3ccc(NC(=O)Nc4ccc(Cl)c(Cl)c4)cc3)c(C)nc2cc1OC | 84.4%

What follows are compounds tested on NCI/ADR-RES (assay: Growth inhibition of human NCI/ADR-RES cells assessed as cell growth at 10 uM incubated for 48 hrs by sulforhodamine B assay relative to control). Conditions: read-out: Activity.
Assay type: functional

Row | Structure (SMILES) | growth at 10 µM
39 | COc1cc2cc(Oc3ccc(NC(=O)Nc4ccccc4)cc3)c(C)nc2cc1OC | 84.3%
40 | COc1cc2cc(Sc3ccc(NC(=O)Nc4ccc(Cl)c(Cl)c4)cc3)c(C)nc2cc1OC | 86.2%

What follows are compounds tested on KM12 (assay: Growth inhibition of human KM12 cells assessed as cell growth at 10 uM incubated for 48 hrs by sulforhodamine B assay relative to control). Conditions: KM12, 48 h, read-out: Activity.
Assay type: functional

Row | Structure (SMILES) | growth at 10 µM
41 | COc1cc2cc(Oc3ccc(NC(=O)Nc4ccccc4)cc3)c(C)nc2cc1OC | 70.3%
42 | COc1cc2cc(Sc3ccc(NC(=O)Nc4ccc(Cl)c(Cl)c4)cc3)c(C)nc2cc1OC | 74.5%

The compounds below were run on M14 (assay: Growth inhibition of human M14 cells assessed as cell growth at 10 uM incubated for 48 hrs by sulforhodamine B assay relative to control). Conditions: M14, 48 h, read-out: Activity.
Assay type: functional

Row | Structure (SMILES) | growth at 10 µM
43 | COc1cc2cc(Oc3ccc(NC(=O)Nc4ccccc4)cc3)c(C)nc2cc1OC | 93.7%
44 | COc1cc2cc(Sc3ccc(NC(=O)Nc4ccc(Cl)c(Cl)c4)cc3)c(C)nc2cc1OC | 81.3%

These compounds were tested on SW-620 (assay: Growth inhibition of human SW620 cells assessed as cell growth at 10 uM incubated for 48 hrs by sulforhodamine B assay relative to control). Conditions: SW-620, 48 h, read-out: Activity.
Assay type: functional

Row | Structure (SMILES) | growth at 10 µM
45 | COc1cc2cc(Oc3ccc(NC(=O)Nc4ccccc4)cc3)c(C)nc2cc1OC | 105%
46 | COc1cc2cc(Sc3ccc(NC(=O)Nc4ccc(Cl)c(Cl)c4)cc3)c(C)nc2cc1OC | 89.9%

Each compound was assayed on SK-OV-3 (assay: Growth inhibition of human SKOV3 cells assessed as cell growth at 10 uM incubated for 48 hrs by sulforhodamine B assay relative to control). Conditions: SK-OV-3, 48 h, read-out: Activity.
Assay type: functional

Row | Structure (SMILES) | growth at 10 µM
47 | COc1cc2cc(Oc3ccc(NC(=O)Nc4ccccc4)cc3)c(C)nc2cc1OC | 48.4%
48 | COc1cc2cc(Sc3ccc(NC(=O)Nc4ccc(Cl)c(Cl)c4)cc3)c(C)nc2cc1OC | 55%

These compounds were tested on SN12C (assay: Growth inhibition of human SN12C cells assessed as cell growth at 10 uM incubated for 48 hrs by sulforhodamine B assay relative to control). Conditions: read-out: Activity.
Assay type: functional

Row | Structure (SMILES) | growth at 10 µM
49 | COc1cc2cc(Oc3ccc(NC(=O)Nc4ccccc4)cc3)c(C)nc2cc1OC | 70.7%
50 | COc1cc2cc(Sc3ccc(NC(=O)Nc4ccc(Cl)c(Cl)c4)cc3)c(C)nc2cc1OC | 78.8%
